We go through 3 compounds from paper PMC3118832 (Clinical Therapeutics, 2011).

For data set [1] the following is noted: cited from earlier work; for enzymatic autoinduction: administered continuously over several days; for CL/F / Vd/F / t1/2: healthy Vietnamese male volunteers, single oral administration, mean.
The nature of data set [2]: clinical. Conditions: human, in vivo. The method, then:
The study was conducted at HTD-HCMC. The clinical trial protocol was reviewed and supported by the internal Scientific and Ethical Committee of the HTD-HCMC and Oxford Tropical Research Ethics Committee (OxTREC 019-06), University of Oxford, Oxford, United Kingdom. The volunteers were randomly assigned to 1 of the 24 possible sequences for the 4 treatment groups (Table I). […] A fixed tablet combination of piperaquine and the reference Vietnamese formulation is not commercially available and could not be included in this trial.
Study drug was administered with 200 mL of drinking water after an overnight fast of >10 hours, according to US Food and Drug Administration (FDA) guidelines for bioequivalence studies.[30] The volunteers were asked to continue fasting for 2 hours after drug administration. Beverages containing caffeine or alcohol were not allowed on days of drug administration and blood sampling. […] Tolerability was assessed daily by the clinician during each study occasion (using an adverse-event report form) and at the follow-up visit 1 week after last study occasion (using an adverse-event report form and laboratory assessment). Adverse events were accessed by using an open question about potential health problems during the study and followed up with a questionnaire if any health problems had occurred since the last consultation.
An intravenous indwelling cannula was introduced and maintained in the antecubital vein and kept for 12 hours during blood sample collection at each study visit. A blood volume of 0.5 mL was discarded before sample collection to avoid drug dilution effects. A5-mL blood sample was drawn into lithium heparin tubes (Hong Thien My Medical Equipment Joint Stock Co., Ho Chi Minh City, Vietnam) before drug administration (predose) and at the following times after drug administration (postdose): 0.25, 0.5, 1, 1.5, 2, 2.5, 3, 4, 5, 6, 7, 8, 10, and 12 hours. The same time schedule was followed for all study visits. Saline solution (0.9% sodium chloride, 2 mL) was used to flush the lines after blood collection. Blood samples were immediately centrifuged at 3000g for 10 minutes at 20°C. Plasma were transferred to cryotubes within 10 minutes after centrifugation and stored directly at –70°C. All samples were freighted to Thailand on dry ice and analyzed by the Clinical Pharmacology Laboratory at Mahidol–Oxford Tropical Medicine Research Unit (Bangkok, Thailand).
The LC-MS/MS system consisted of an Agilent 1200 LC system including an autosampler set at 4°C and a column oven set at 40°C (Agilent Technologies Inc., Santa Clara, California) coupled with an API 5000 triple quadrupole mass spectrometer (Applied Biosystems/MDS SCIEX, Foster City, California). The lower limit of quantitation was set to 1.03 ng/mL, with a limit of detection of 0.257 ng/mL. […] Three independent quality-control samples in plasma (2.89, 40.7, and 571 ng/mL) were prepared fresh and analyzed in triplicate in each batch of extracted plasma samples. All samples were kept on ice until loaded onto the solid-phase extraction plate. The extracted samples were injected directly (5 μL) into the LC-MS/MS system.
AUC0–last values were calculated using the linear trapezoidal method for ascending concentrations and the logarithmic trapezoidal method for descending concentrations.[33] […] Cmax and Tmax concentrations were taken directly from the observed data. Vd/F and CL/F were computed individually according to standard procedures and summarized for each treatment group. […]

A short description of data set [3]: Tolerability: adverse-event reports and laboratory assessment at follow-up. The data set is classed as in vivo, human. As for the experimental part:
Fifteen healthy Vietnamese male volunteers aged 18 to 55 years were enrolled in the study. No female subjects were enrolled to avoid potential risks of adverse effects on the fetus during early pregnancy. The study design and potential adverse drug effects were explained to all volunteers in their own language before initiation of any study-related procedures. Volunteers who provided written informed consent were considered for enrollment. Clinical and laboratory screenings were performed at the Hospital for Tropical Diseases in Ho Chi Minh City (HTD-HCMC), Vietnam, and the results evaluated before enrollment. Clinical evaluation and laboratory assessment (full hematology and biochemistry) were also performed at follow-up 1 week after the last study visit.

[4] abbreviates: posttreatment (follow-up 1 week after last visit), mean (SD).

Read-outs that look alike come from different tables or passages of the source.

On to `CO[C@H]1O[C@@H]2O[C@@]3(C)CC[C@H]4[C@H](C)CC[C@@H]([C@H]1C)[C@@]24OO3` [artemether], for which the enzymatic autoinduction result in data set [1] is “marked ability for enzymatic autoinduction”.

Consider `C[C@@H]1CC[C@H]2[C@@H](C)C(=O)O[C@@H]3O[C@@]4(C)CC[C@@H]1[C@]32OO4` [artemisinin], for which the “oral clearance in smokers compared with nonsmokers” value in data set [2] (po) was “significantly higher”. For the same compound, in data set [2] (male), the CL/F was 121 mL/min/kg, the Vd came out at 1320 L, the Vd/F was 22.8 L/kg and the half-life was 2.23 h. The “tolerability / adverse events” value in data set [3] (15 healthy volunteers, single oral doses) is “no adverse events were reported”. The “volunteers with higher aspartate aminotransferase at follow-up compared with baseline” value in data set [3] (levels still in the normal range) was “Six of the 15”. The Urea in data set [3] (posttreatment (follow-up 1 week after last of 4 single-dose visits), mean (SD)) is 5.36 (1.5) [2.4–7.2] mM. Besides, in data set [3] (setting [4]), the ALT was 44.7 (25) [15–120] U/L, the AST is 29.1 (16) [19–80] U/L, the Albumin was 39.7 (4.2) [30–46] g/L and the Basophils was 1.12 (0.49) [0.23–2.1] %. Besides, in data set [3] (setting [4]), the Eosinophils was 5.34 (3.2) [1.6–13] %, the Erythrocytes is 5.23 (0.49) [4.6–6.1] 10^12/L, the Ferritin was 117 (36) [69–190] μg/L and the Globulin was 37.7 (6.5) [30–47] g/L. In addition, in data set [3] (setting [4]), the Glucose is 3.91 (0.35) [3.5–4.4] mM, the Hematocrit was 47.7 (2.5) [45–53] %, the Hemoglobin was 15.6 (0.78) [15–18] g/dL and the Leukocytes was 7.62 (1.5) [5.4–10] 10^9/L. For the same compound, in data set [3] (setting [4]), the Lymphocytes was 32.5 (6.2) [21–43] %, the Magnesium is 0.896 (0.17) [0.70–1.1] mM, the Monocytes is 7.47 (1.4) [5.3–10] % and the Neutrophils is 53.7 (6.5) [45–63] %. Also, in data set [3] (setting [4]), the Reticulocytes was 0.700 (0.34) [0.10–1.5] %, the Thrombocytes is 258 (59) [130–330] 10^9/L, the Total bilirubin is 16.1 (4.0) [9.0–20] μM and the Total protein is 77.3 (5.1) [67–82] g/L. Further, in data set [1] (ref 31), the CL/F was 127 mL/min/kg, the Vd/F was 35.9 L/kg and the t1/2 is 2.10 h. In addition, in data set [1] (ref 35), the CL/F is 85 mL/min/kg, the Vd/F is 19.4 L/kg and the t1/2 was 2.59 h. Also, in data set [1] (ref 36), the CL/F was 89.7 mL/min/kg, the Vd/F is recorded as 16.4 L/kg and the t1/2 is 2.51 h. Moreover, the bioavailability in data set [1] (in vivo) was less than 30%.

Consider `C[C@H]1[C@@H](O)O[C@@H]2O[C@@]3(C)CC[C@H]4[C@H](C)CC[C@@H]1[C@@]24OO3` [dihydroartemisinin], for which the enzymatic autoinduction result in data set [1] is “not”.
